# Test results taken from patent publication US20240124872A1, “IDENTIFICATION OF GENOMIC TARGETS” (University of Leeds, priority 2021, published 2024).
# Columns and labels:
# [1] = test system: HeLa cells stably expressing CaMPARI-H396K; test: AITC responsiveness via Fura-2 calcium imaging; assay type: cell-based; conditions: unmodified HeLa cells stably expressing CaMPARI-H396K (HeLa-C); FIG. 4
# Method: FIG. 4 provides validation of TAGS (AITC-screen for TRPA1). a) a Piggy-Bac library was generated in Hela-C cells, stimulated with 100 uM AITC and co-incident photo-conversion light, and sorted via FACS based on CaMPARI red/green signal. b) Positive clones were collected as single cells, expanded into clonal populations, and testing for AITC responsiveness via Fura-2 calcium imaging. Percent responding cells are shown for each population. c-d) Example Fura-2 imaging traces. c) phenotypic negativity of HeLa-C cells. d) Example traces from population #22 in b. e) Genotyping of 100% responders. […] Blue arrows highlight transcription start site (TSS) of TRPA1. Red arrows highlight the true common insertion site (CIS) upstream of the TSS, found in every clone genotyped.
# A test sample from each positive clonal line was loaded with the fluorescent calcium indicator Fura-2AM for 30 minutes in regular media supplemented with 1 ul/ml PluronicF127, washed with Ringer solution, and tested for positivity for the phenotype in question using conventional fluorescent microscopy (see FIG. 4a-d). A further test sample from confirmed positive clonal lines was transfected (as described above) with the pCAG-Cre vector (Addgene) to induce transient Cre recombinase expression. Phenotypic positivity was then re-tested as above, and populations in which the phenotype […] are discarded. […]
# [2] = test system: TRPA1 knockout mice; conditions: cited from earlier work
compound,measurement,setting,value
C=CCN=C=S [AITC],AITC responses (calcium signalling),[1],phenotypically negative
same,sensitivity to AITC,[2],lose all sensitivity
